From patent US20220152100A1, “METHODS FOR CONTROLLED ACTIVATION OR ELIMINATION OF THERAPEUTIC CELLS” (Bellicum Pharmaceuticals, Inc., priority 2014, published 2022)

How the values were obtained:
[1] = system: Jurkat; assay: CID-induced apoptosis (annexin V) in transduced Jurkat cells; assay type: cell-based, human; conditions: iFas-transduced Jurkat, 10 nM, 8 hours
[2] = system: iCasp9-positive MSCs; assay: In vivo killing of iCasp9-transduced MSCs in SCID mice (luminescence, qPCR)
Method: All mouse experiments were performed in accordance with the Baylor College of Medicine animal husbandry guidelines. To assess the persistence of modified MSCs in vivo, a SCID mouse model was used in conjunction with an in vivo imaging system. MSCs were transduced with retroviruses coding for the enhanced green fluorescent protein-firefly luciferase (eGFP-FFLuc) gene alone or together with the iCasp9-ΔCD19 gene. Cells were sorted for eGFP positivity by fluorescence activated cell sorting using a MoFlo flow cytometer (Beckman Coulter, Fullerton, Calif.). Doubly transduced cells were also stained with PE-conjugated anti-CD19 and sorted for PE-positivity. SCID mice (8-10 weeks old) were injected subcutaneously with 5×10^5 MSCs with and without iCasp9-ΔCD19 in opposite flanks. […] For in vivo imaging of MSCs expressing eGFP-FFLuc, mice were injected intraperitoneally with D-luciferin (150 mg/kg) and analyzed using the Xenogen-IVIS Imaging System. Total luminescence (a measurement proportional to the total labeled MSCs deposited) at each time point was calculated by automatically defining regions-of-interest (ROIs) over the MSC implantation sites. These ROIs included all areas with luminescence signals at least 5% above background. Total photon counts were integrated for each ROI and an average value calculated. […]

CC[C@H](C(=O)N1CCCC[C@H]1C(=O)O[C@H](CCc1ccc(OC)c(OC)c1)c1cccc(OCC(=O)NCC(CNC(=O)COc2cccc([C@@H](CCc3ccc(OC)c(OC)c3)OC(=O)[C@@H]3CCCCN3C(=O)[C@@H](CC)c3cc(OC)c(OC)c(OC)c3)c2)CN(C)C)c1)c1cc(OC)c(OC)c(OC)c1 [AP20187]
apoptotic cells (annexin-V) [1]: 56.4%+/−15.6
surviving iCasp9-positive cells, of the original population ([2]; after one week): 0.7%
killing of iCasp9-positive cells ([2]; two injections of 50 μg 24 hours apart, qPCR): > 99%
